Test results: patent US20240417406A1, “NITROGEN-CONTAINING TRICYCLIC COMPOUND AND PHARMACEUTICAL USE THEREOF” (JAPAN TOBACCO INC., priority 2021, published 2024)

Target: human PDHK2 (hPDHK2) (Homo sapiens (Human), UniProt Q15119)
Experiment: Inhibitory action of PDHK2 activity (PDH/hPDHK2 complex, residual PDH activity by NADH absorbance at 340 nm)
Format: biochemical
Conditions: FLAG-tagged recombinant hPDHK2 with porcine heart PDH complex; PDHK reaction 45 min at room temperature
Method: In the case of human PDHK2 (hPDHK2, NCBI Reference Database Accession number NM_002611.4), modified hPDHK2 cDNA wherein FLAG-Tag sequence was added to the N terminal of hPDHK2 cDNA clone (pReceiver-M01/PDK2-GeneCopoeia) as the base was prepared by polymerase chain reaction (PCR) and ligated to the NdeI/EcoRI site of pET-17b vector (Merck KGaA, Catalog Number 69663-3). The recombinant construct was transformed into Escherichia coli DH5a. The recombinant clones were identified, and plasmid DNA was isolated and subjected to the DNA sequence analysis. One clone which had the expected nucleic acid sequence was selected for expression work.
For expression of hPDHK2 activity, Escherichia coli strain BL21(DE3) cells (Merck KGaA, Catalog Number 69450-4) were transformed with the pET17b vector containing modified hPDHK2 cDNA. The Escherichia coli were grown to an optical density 0.6 ([…]) at 30° C. Protein expression was induced by the addition of 500 μmol/L isopropyl-β-thiogalactopyranoside. The Escherichia coli were cultured at 20° C. for 17 to for 18 hr and harvested by centrifugation. The harvested Escherichia coli was resuspended in a suspension buffer (20 mmol/L HEPES-NaOH, 500 mmol/L sodium chloride, 1% ethylene glycol, 0.1% Pluronic (registered trademark) F-68 (pH 8.0), cOmplete, EDTA-free (Roche) (pH 8.0)), and disrupted by a microfluidizer M-110H (MIZUHO INDUSTRIAL CO., LTD.). The precipitate was removed by centrifugation and the supernatant was added to DDDDK-tagged Protein PURIFICATION GEL (MEDICAL & BIOLOGICAL LABORATORIES CO., LTD., Code No. 3329). DDDDK-tagged Protein PURIFICATION GEL was washed with a washing buffer (20 mmol/L HEPES-NaOH, 500 mmol/L sodium chloride, 1% ethylene glycol, 0.1% Pluronic F-68 (pH 8.0)) and the bound protein was eluted with elution buffer 1 (20 mmol/L HEPES-NaOH, 100 μg/mL peptide (amino acid sequence DYKDDDDK) (SEQ ID NO: 1), 500 mmol/L sodium chloride, 1% ethylene glycol, 0.1% Pluronic F-68 (pH 8.0)). The eluted fractions containing FLAG-Tagged protein were pooled, concentrated by an ultrafiltration method, added to a gel filtration column (HiLoad 26/60 Superdex 200 (GE Healthcare Life Sciences, Code No. 17-1070-01)), and eluted with elution buffer 2 (20 mmol/L HEPES-NaOH, 150 mmol/L sodium chloride, 0.5 mmol/L ethylenediaminetetraacetic acid (EDTA), 1% ethylene glycol, 0.1% Pluronic F-68 (pH 8.0)). The eluted fractions were pooled and preserved at −80° C.
PDH (porcine heart PDH complex, Sigma P7032) and 0.5 μg/mL hPDHK2 were mixed in an assay buffer (50 mmol/L 3-morpholinopropanesulfonic acid (pH 7.0), 20 mmol/L dipotassium hydrogen phosphate, 60 mmol/L potassium chloride, 2 mmol/L magnesium chloride, 0.4 mmol/L EDTA, 0.2% poloxamer, 2 mmol/L dithiothreitol) so that the final concentration of PDH was 0.025 U/mL, and the mixture was incubated at 4° C. overnight to obtain a PDH/hPDHK2 complex solution.
PDH was mixed with the assay buffer so that the final concentration was 0.025 U/mL, and the mixture was incubated at 4° C. overnight to prepare a PDH solution.
The test compounds were diluted with DMSO. […] DMSO (1.5 μL) was added to control wells instead of test compound. In addition, DMSO (1.5 μL) was added to blank wells instead of the test compound, and PDH solution was added instead of the PDH/hPDHK2 complex solution. To measure an inhibitory action of the test compound on the PDHK activity inherent in the PDH solution, a test compound was added and the PDH solution instead of the PDH/hPDHK2 complex solution was added to a blank+test compound well.
Then, 10 μL of substrates (5 mmol/L sodium pyruvate, 5 mmol/L Coenzyme A, 12 mmol/L NAD, 5 mmol/L thiamine pyrophosphate, diluted with assay buffer) were added. The mixture was incubated at room temperature for 90 min, and the residual PDH activity was measured.
The absorbance of each well at 340 nm was measured using a microplate reader to detect NADH produced by the PDH reaction. […]

SMILES | IC50 [µM]
C[C@H]1Cc2c(cnn2C2CC(C#N)C2)-c2onc([C@@](C)(O)C(F)(F)F)c21 (stereo in doubt) [Example 29] | 0.0236
C[C@H]1Cn2nc(C34CCC(C#N)(CC3)CC4)cc2-c2cnnc([C@@](C)(O)C(F)(F)F)c21 (racemic) [Example 103, 4-[(R)-5-methyl-4-((R)-1,1,1-trifluoro-2-hydroxypropan-2-yl)-5,6-dihydropyrazolo[1′,5′:1,2]pyrido[3,4-d]pyridazin-9-yl]bicyclo[2.2.2]octane-1-carbonitrile and 4-[(S)-5-methyl-4-((S)-1,1,1-trifluoro-2-hydroxypropan-2-yl)-5,6-dihydropyrazolo[1′,5′:1,2]pyrido[3,4-d]pyridazin-9-yl]bicyclo[2.2.2]octane-1-carbonitrile] | 0.0243
C[C@H]1Cc2nn(C(F)F)cc2-c2onc([C@@](C)(O)C(F)(F)F)c21 (racemic) [Example 22] | 0.0224
C[C@H]1Cn2c(nnc2C(F)(F)F)-c2onc([C@@](C)(O)C(F)(F)F)c21 [Example 1, (R)-1,1,1-trifluoro-2-((R)-6-methyl-3-(trifluoromethyl)-5,6-dihydroisoxazolo[5,4-c][1,2,4]triazolo[4,3-a]pyridin-7-yl)propan-2-ol] | 0.0243
C[C@H]1Cn2nc(OCC34CCC(C#N)(CC3)CC4)cc2-c2cnc([C@@](C)(O)C(F)(F)F)n21 [Example 89] | 0.0377
C[C@H]1Cc2c(cnn2C)-c2onc([C@@](C)(O)C(F)(F)F)c21 (racemic) [Example 24] | 0.0254
C[C@H]1Cn2nc(C34CCC(C#N)(CC3)CO4)cc2-c2cnc([C@@](C)(O)C(F)(F)F)n21 [Example 93, 1-((S)-5-methyl-3-((R)-1,1,1-trifluoro-2-hydroxypropan-2-yl)-5,6-dihydroimidazo[1,5-a]pyrazolo[5,1-c]pyrazin-9-yl)-2-oxabicyclo[2.2.2]octane-4-carbonitrile] | 0.0334
C[C@H]1Cn2nc(OC(F)F)cc2-c2onc([C@@](C)(O)C(F)(F)F)c21 (racemic) [Example 45] | 0.0264
C[C@H]1Cn2nc(N3CC4CC(C3)C4(F)F)cc2-c2cnc([C@@](C)(O)C(F)(F)F)n21 [Example 79] | 0.0352
C[C@H]1Cc2c(cnn2[C@H]2C[C@@](C)(C#N)C2)-c2onc([C@@](C)(O)C(F)(F)F)c21 (racemic) [Example 57, (1R,3s)-1-methyl-3-((S)-4-methyl-3-((R)-1,1,1-trifluoro-2-hydroxypropan-2-yl)-4,5-dihydro-6H-isoxazolo[5,4-e]indazol-6-yl)cyclobutane-1-carbonitrile and enantiomer thereof] | 0.0285
C[C@H]1Cn2nc(C34CCC(C#N)(CC3)OC4)cc2-c2cnc([C@@](C)(O)C(F)(F)F)n21 [Example 88, 4-((S)-5-methyl-3-((R)-1,1,1-trifluoro-2-hydroxypropan-2-yl)-5,6-dihydroimidazo[1,5-a]pyrazolo[5,1-c]pyrazin-9-yl)-2-oxabicyclo[2.2.2]octane-1-carbonitrile] | 0.0238
C[C@H]1Cn2nccc2-c2onc([C@@](C)(O)C(F)(F)F)c21 (racemic) [Example 17] | 0.0213
C[C@H]1Cn2nc(N3CC4(C3)CC(F)(F)C4)cc2-c2cnc([C@@](C)(O)C(F)(F)F)n21 [Example 84, (R)-2-((S)-9-(6,6-difluoro-2-azaspiro[3.3]heptan-2-yl)-5-methyl-5,6-dihydroimidazo[1,5-a]pyrazolo[5,1-c]pyrazin-3-yl)-1,1,1-trifluoropropan-2-ol] | 0.0365
C[C@H]1Cc2nn(C3CC3)cc2-c2onc([C@@](C)(O)C(F)(F)F)c21 [Example 19] | 0.0138

Continued by falling IC50, values first:

IC50 [µM] | SMILES
0.0204 | C[C@H]1Cn2c(nnc2C(C)(F)F)-c2onc([C@@](C)(O)C(F)(F)F)c21 [Example 3]
0.0186 | C[C@H]1Cn2nc(N3CC4CC3C4)cc2-c2cnc([C@@](C)(O)C(F)(F)F)n21 [Example 83]
0.0178 | C[C@H]1Cn2nc(OC3CCOCC3)cc2-c2onc([C@@](C)(O)C(F)(F)F)c21 (racemic) [Example 35]
0.0143 | C[C@H]1Cc2nn([C@H]3CC[C@](C)(O)CC3)cc2-c2onc([C@@](C)(O)C(F)(F)F)c21 (racemic) [Example 55, (1S,4r)-1-methyl-4-((S)-4-methyl-3-((R)-1,1,1-trifluoro-2-hydroxypropan-2-yl)-4,5-dihydro-7H-isoxazolo[5,4-e]indazol-7-yl)cyclohexan-1-ol and enantiomer thereof]
0.0141 | C[C@H]1Cn2nc(C34CCC(C#N)(CC3)C4)cc2-c2cnc([C@@](C)(O)C(F)(F)F)n21 [Example 86, 4-((S)-5-methyl-3-((R)-1,1,1-trifluoro-2-hydroxypropan-2-yl)-5,6-dihydroimidazo[1,5-a]pyrazolo[5,1-c]pyrazin-9-yl)bicyclo[2.2.1]heptane-1-carbonitrile]
0.0137 | C[C@H]1Cc2c(cnn2C23CC(C#N)(C2)C3)-c2onc([C@@](C)(O)C(F)(F)F)c21 (racemic) [Example 51]
0.0125 | C[C@H]1Cc2c(cnn2C2CC2)-c2onc([C@@](C)(O)C(F)(F)F)c21 (racemic) [Example 18]
0.0117 | Cc1nnc2n1C[C@H](C)c1c([C@@](C)(O)C(F)(F)F)noc1-2 [Example 6]
0.0109 | C[C@H]1Cn2nc(OCc3ccccc3)cc2-c2onc([C@@](C)(O)C(F)(F)F)c21 (racemic) [Example 15]
0.01 | C[C@H]1Cn2nc(C34CCC(C(C)(C)O)(CC3)CC4)cc2-c2cnc([C@@](C)(O)C(F)(F)F)n21 [Example 75]
0.0094 | COC(=O)C12CC(c3nnc4n3C[C@H](C)c3c([C@@](C)(O)C(F)(F)F)noc3-4)(C1)C2 [Example 10]
0.0092 | C[C@H]1Cn2c(-c3ccc(F)cc3)nnc2-c2onc([C@@](C)(O)C(F)(F)F)c21 [Example 7]
0.0088 | C[C@H]1Cc2c(cnn2[C@H]2C[C@](C)(C#N)C2)-c2onc([C@@](C)(O)C(F)(F)F)c21 (racemic) [Example 53, (1S,3r)-1-methyl-3-((S)-4-methyl-3-((R)-1,1,1-trifluoro-2-hydroxypropan-2-yl)-4,5-dihydro-6H-isoxazolo[5,4-e]indazol-6-yl)cyclobutane-1-carbonitrile and enantiomer thereof]
0.0075 | C[C@H]1Cn2c(nnc2C23CC(C(C)(C)O)(C2)C3)-c2onc([C@@](C)(O)C(F)(F)F)c21 [Example 13]
0.0071 | C[C@H]1Cn2nc(OC3CCOCC3)cc2-c2onc([C@@](C)(O)C(F)(F)F)c21 [Example 59, (R)-1,1,1-trifluoro-2-((R)-4-methyl-8-((tetrahydro-2H-pyran-4-yl)oxy)-4,5-dihydroisoxazolo[5,4-c]pyrazolo[1,5-a]pyridin-3-yl)propan-2-ol]
0.0067 | C[C@H]1Cn2nccc2-c2onc([C@@](C)(O)C(F)(F)F)c21 [Example 60, (R)-1,1,1-trifluoro-2-((R)-4-methyl-4,5-dihydroisoxazolo[5,4-c]pyrazolo[1,5-a]pyridin-3-yl)propan-2-ol]
0.006 | C[C@H]1Cn2c(nnc2C23CCC(C(C)(C)O)(CC2)CC3)-c2onc([C@@](C)(O)C(F)(F)F)c21 [Example 12]
0.0058 | C[C@H]1Cc2c(cnn2CCC(C)(C)O)-c2onc([C@@](C)(O)C(F)(F)F)c21 [Example 40]
